Results published in PMC10860144, “Exploring the Dispersion and Electrostatic Components in Arene–Arene Interactions between Ligands and G4 DNA to Develop G4-Ligands” (Journal of Medicinal Chemistry, 2024).
Read-outs that look alike come from different tables or passages of the source.

Key:
[1] = test system: Tba (thrombin binding aptamer); assay: FRET melting assay, Tba G4 DNA; details: 5 at 2 μM, 27 at 5 μM; G4 DNA 0.2 μM
Experimental: Additional G4 DNA structures were examined in the FRET melting assay to study the selectivity of compound (5) and its methylated analogue (27) toward different G4 structures. Compounds 5 and 27 were tested at 2 and 5 μM, respectively, for their abilities to increase the thermal stability of G4 DNA structures (Figure 6C and Table S1). Overall, this confirms that compound 5 is a much stronger G4 stabilizer, as compared to 27.
Synthetic labeled oligonucleotides for the FRET study were purchased from Eurofins Genomics. Stock solutions were prepared in MQ-water at 100 μM concentration. The sequences used are listed in Supporting Information Table S1. All the oligonucleotides except Pu22 were prefolded in 10 mM lithium cacodylate buffer (pH 7.4), with 10 mM KCl and 90 mM LiCl by heating for 10 min at 95 °C and then cooling in fridge for at least 1 h. […]
The FRET occurs between two dyes (5′-FAM as donor and 3′-TAMRA as acceptor) linked at both extremities of a DNA oligonucleotide. […] This process can be detected by a reduction in the fluorescence emission of the donor. Fluorescence emission of the donor is recovered when the temperature increment triggers the thermal denaturation of the G4 structure. […] The stabilization (ΔTm) is calculated from comparison of Tm of the fluorescently labeled oligonucleotide in the presence or absence of the ligand.

dsDNA (5'Cy5-ds26) = assay: MST with fluorescently labeled dsDNA; assay type: binding
Experimental: We next challenged the compounds’ G4 selectivity with a FRET melting competition assay using 5 (2 μM) and 27 (5 μM) with c-MYC Pu22 G4 DNA and increasing amounts of dsDNA (Figure 6D and Table S1). […] In addition, we investigated if we could detect any binding of the compounds to dsDNA using MST with a fluorescently labeled dsDNA (Table S1).
5′-Cy5 labeled G4 DNAs for this study were purchased from Eurofins Genomics. Stock solutions were prepared in water at 100 μM concentration. The sequences used are listed in Supporting Information Table S1. The G4 DNA sequences were folded in KCl buffer (10 mM phosphate, 100 mM KCl, pH 7.4) by heating at 95 °C for 5 min and then cooling to room temperature. All the experiments were performed in 10 mM phosphate pH 7.4, 100 mM KCl, and 0.05% Tween20. The labeled DNA concentration is held constant at 25 nM, and ligand concentration is varied depending on ligands Kd (16 1:3 dilutions). The samples were loaded into standard MST graded glass capillaries and initial fluorescence intensity of the capillary was measured using Monolith NT.115 (Nano Temper, Germany) with 20% LED power. The change in fluorescence with ligand’s concentrations were plotted in Excel and fitted through nonlinear equation to obtain the binding constants.

[2] = Caco-2 intrinsic permeability; assay type: in vitro ADME; details: human, read-out: Cell-permeability (Papp)
Excerpt: We next performed further profiling of the most promising compound 5 and its matched pair neutral analogue 27, by measuring intrinsic permeability in a Caco-2 assay (Table S3). […] This was further confirmed using Immortalized Human Total Liver Cell Population (IHTLCP) and HeLa cells (Figures S22 and S23). […] This observed cytotoxicity of 5 can be linked to its potent G4 binding and stabilization, as it can potentially act as a pan-G4 stabilizer and affect various G4-regulated cellular processes, such as telomere maintenance, gene transcription, and DNA replication.
Physicochemical properties
The Physicochemical profiling (LogD, Solubility, Caco-2 cell permeability) was performed as previously
described.8 Cell viability was performed as described below.
Table S2. Pharmacokinetic Properties
Compound Structure logD, Solubility, Rat hepsa Human mics b

THP-1 cell line = assay: THP-1 cell viability (cytotoxicity); assay type: cell-based, human; details: read-out: Cell viability IC50 (THP1)
Experimental: THP1 cell viability was measured according to a previously published procedure.[48] […]
Table S3. Cell permeability and cell viability for 5 and 27
Compound Cell-permeability Cell viability IC50 Cell viability IC50 Cell viability IC50
(X x 10-6 cm/s) (THP1) (µM) (HeLa) (µM) (IHTLCP) (µM) […]
THP1 cell viability was measured according to a previously published procedure.9

[3] = Homo sapiens, THP-1, THP-1 cell line

binding to dsDNA (MST) (dsDNA (5'Cy5-ds26))	Papp [2]	Structure (SMILES)	effect on thermal stability of Tba [1]	IC50 (THP-1 cell line; [3])	IC50 (THP-1 cell line; THP-1 cell line)
no binding could be observed	< 0.13 ×10⁻⁶ cm/s	Cc1cc(C)c2nc(Nc3nc(C)cc(NCCCN(C)C)n3)nc(C)c2c1 [Compound 5, N4-(3-(Dimethylamino)propyl)-6-methyl-N2-(4,6,8-trimethylquinazolin-2-yl)pyrimidine-2,4-diamine]	Neither compound affected the thermal stability	2890 nM	2900 nM
no binding could be observed	70 ×10⁻⁶ cm/s	Cc1cc(C)c2nc(Nc3nc(C)cc(C)n3)nc(C)c2c1 [Compound 27, N-(4,6-Dimethylpyrimidin-2-yl)-4,6,8-trimethylquinazolin-2-amine]	Neither compound affected the thermal stability	> 50000 nM	≥ 50000 nM
